# Assay results: patent US12084472B2 (Ardelyx, Inc., priority 2015, dated 2024)
# Molecular target: T1, human TGR5 (Homo sapiens, UniProt Q8TDU6)
# T1 construct: expressed in transfected cells; host or cells: HEK293
# T1 sequence (Q8TDU6 1-330): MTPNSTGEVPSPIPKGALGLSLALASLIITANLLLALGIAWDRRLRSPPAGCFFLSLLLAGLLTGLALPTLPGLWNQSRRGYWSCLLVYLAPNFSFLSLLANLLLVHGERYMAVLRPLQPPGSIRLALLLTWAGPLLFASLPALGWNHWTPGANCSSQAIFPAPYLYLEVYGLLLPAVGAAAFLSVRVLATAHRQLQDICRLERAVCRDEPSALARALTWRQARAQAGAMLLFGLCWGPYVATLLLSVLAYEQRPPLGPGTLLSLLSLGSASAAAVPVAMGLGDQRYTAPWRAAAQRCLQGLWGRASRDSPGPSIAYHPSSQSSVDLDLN
# Test: Cell-based TGR5 assay (cAMP generation, HTRF)
# Settings: HEK293 cells stably transfected with human TGR5; cAMP by HTRF; 30 minutes at 37° C.; read-out: pEC50 Human TGR5 (converted)
# Outline: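 First, compounds in 3-fold serial dilution were placed in HBSS with 10 mM HEPES pH 7.4 and 0.5 mM IBMX. Next, human TGR5-expressing HEK293 cells were added and incubated 30 min at 37° C. Finally, cAMP was detected by HTRF and pEC50 derived by logistic fitting.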
row,EC50 [nM],SMILES
1,< 100,"O=C(NCC1CCCN(S(=O)(=O)c2ccc(Cl)c(COC3(c4cnccc4-c4ccccc4OC4CC4)CC3)c2)C1)NC[C@H](O)[C@@H](O)[C@H](O)[C@H](O)CO (stereo in doubt) [Compound I-426, 1-({1-[4-chloro-3-({1-[4-(2-cyclopropoxyphenyl)pyridin-3-yl]cyclopropoxy}methyl)benzenesulfonyl]piperidin-3-yl}methyl)-3-[(2S,3R,4R,5R)-2,3,4,5,6-pentahydroxyhexyl]urea]"
2,< 100,"O=C(/C=C/C1CN(S(=O)(=O)c2ccc(Cl)c(COC3(c4cnccc4-c4ccccc4OC4CC4)CC3)c2)C1)NC[C@H](O)[C@@H](O)[C@H](O)[C@H](O)CO [Compound I-446, (2E)-3-{1-[4-chloro-3-({1-[4-(2-cyclopropoxyphenyl)pyridin-3-yl]cyclopropoxy}methyl)benzenesulfonyl]azetidin-3-yl}-N-[(2S,3R,4R,5R)-2,3,4,5,6-pentahydroxyhexyl]prop-2-enamide]"
3,< 100,"CSc1ccc(Cl)c(CNC2(c3cnccc3-c3ccccc3OC3CC3)CC2)c1 [Compound I-23, N-{[2-chloro-5-(methylsulfanyl)phenyl]methyl}-1-[4-(2-cyclopropoxyphenyl)pyridin-3-yl]cyclopropan-1-amine]"
4,1260 to 10000,"O=C([C@@H](O)[C@@H](O)[C@H](O)[C@@H](O)CO)N(CCCSc1ccc(Cl)c(CNC2(c3cnccc3-c3ccccc3OC3CC3)CC2)c1)C1CCS(=O)(=O)CC1 [Compound I-552, (2S,3S,4R,5S)-N-[3-({4-chloro-3-[({1-[4-(2-cyclopropoxyphenyl)pyridin-3-yl]cyclopropyl}amino)methyl]phenyl}sulfanyl)propyl]-N-(1,1-dioxo-1λ^6-thian-4-yl)-2,3,4,5,6-pentahydroxyhexanamide]"
5,< 100,"COC[C@H](O)CN(C[C@H](O)[C@@H](O)[C@H](O)[C@H](O)CO)C(=O)CCCCc1cc(Cl)c(COC2(c3cnccc3-c3ccccc3OC3CC3)CC2)cc1Cl [Compound I-124, 5-[2,5-dichloro-4-({1-[4-(2-cyclopropoxyphenyl)pyridin-3-yl]cyclopropoxy}methyl)phenyl]-N-[(2R)-2-hydroxy-3-methoxypropyl]-N-[(2S,3R,4R,5R)-2,3,4,5,6-pentahydroxyhexyl]pentanamide]"
6,< 100,"O=C(NCCC1CCN(S(=O)(=O)c2ccc(Cl)c(COC3(c4cnccc4-c4ccccc4OC4CC4)CC3)c2)CC1)NC[C@H](O)[C@@H](O)[C@H](O)[C@H](O)CO [Compound I-417, 1-(2-{1-[4-chloro-3-({1-[4-(2-cyclopropoxyphenyl)pyridin-3-yl]cyclopropoxy}methyl)benzenesulfonyl]piperidin-4-yl}ethyl)-3-[(2S,3R,4R,5R)-2,3,4,5,6-pentahydroxyhexyl]urea]"
7,126 to 1000,"O=C(NC[C@H](O)[C@@H](O)[C@H](O)[C@H](O)CO)NC1CC2(CCN(S(=O)(=O)c3ccc(Cl)c(COC4(c5cnccc5-c5ccccc5OC5CC5)CC4)c3)CC2)C1 [Compound I-428, 1-{7-[4-chloro-3-({1-[4-(2-cyclopropoxyphenyl)pyridin-3-yl]cyclopropoxy}methyl)benzenesulfonyl]-7-azaspiro[3.5]nonan-2-yl}-3-[(2S,3R,4R,5R)-2,3,4,5,6-pentahydroxyhexyl]urea]"
8,< 100,"CCC(=O)N(CCCCc1cc(Cl)c(COC2(c3cnccc3-c3ccccc3OC3CC3)CC2)cc1Cl)C[C@H](O)[C@@H](O)[C@H](O)[C@H](O)CO [Compound I-73, N-{4-[2,5-dichloro-4-({1-[4-(2-cyclopropoxyphenyl)pyridin-3-yl]cyclopropoxy}methyl)phenyl]butyl}-N-[(2S,3R,4R,5R)-2,3,4,5,6-pentahydroxyhexyl]propanamide]"
9,126 to 1000,"CN(CCCCNC(=O)N[C@@H](CO)[C@@H](O)[C@H](O)[C@H](O)CO)S(=O)(=O)c1cc(CNC2(c3cnccc3-c3ccccc3OC3CC3)CC2)c(Cl)cc1Cl [Compound I-476, 1-(4-{N-methyl2,4-dichloro-5-[({1-[4-(2-cyclopropoxyphenyl)pyridin-3-yl]cyclopropyl}amino)methyl]benzenesulfonamido}butyl)-3-[(2S,3R,4S,5R)-1,3,4,5,6-pentahydroxyhexan-2-yl]urea]"
10,< 100,"CC(C)N(CCCCNC(=O)[C@@H](O)[C@@H](O)[C@H](O)[C@@H](O)CO)S(=O)(=O)c1cc(COC2(c3cnccc3-c3ccccc3OC3CC3)CC2)c(Cl)cc1F [Compound I-728, (2S,3S,4R,5S)-2,3,4,5,6-pentahydroxy-N-[4-[N-(propan-2-yl)[4-chloro-5-([1-[4-(2-cyclopropoxyphenyl)pyridin-3-yl]cyclopropoxy]methyl)-2-fluorobenzene]sulfonamido]butyl]hexanamide]"
11,< 100,"CNS(=O)(=O)c1ccc(Cl)c(COC2(c3cnccc3-c3ccccc3OC3CC3)CC2)c1 [Compound I-394, 4-chloro-3-({1-[4-(2-cyclopropoxyphenyl)pyridin-3-yl]cyclopropoxy}methyl)-N-methylbenzene-1-sulfonamide]"
12,< 100,"Cc1ccc(C(C)CCCN(C(=O)[C@@H](O)[C@@H](O)[C@H](O)[C@@H](O)CO)C2CCOCC2)cc1CNC1(c2cnccc2-c2ccccc2OC2CC2)CC1 (stereo partly drawn) [Compound I-304, (2S,3S,4R,5S)-N-(4-{3-[({1-[4-(2-cyclopropoxyphenyl)pyridin-3-yl]cyclopropyl}amino)methyl]-4-methylphenyl}pentyl)-2,3,4,5,6-pentahydroxy-N-(oxan-4-yl)hexanamide]"
13,126 to 1000,"O=C(NCCCCNC(=O)NCCOCCSc1ccc(Cl)c(COC2(c3cnccc3-c3ccccc3OC3CC3)CC2)c1)NCCOCCSc1ccc(Cl)c(COC2(c3cnccc3-c3ccccc3OC3CC3)CC2)c1 [Compound I-638, 3-[2-(2-{[4-chloro-3-({1-[4-(2-cyclopropoxyphenyl)pyridin-3-yl]cyclopropoxy}methyl)phenyl]sulfanyl}ethoxy)ethyl]-1-[4-({[2-(2-{[4-chloro-3-({1-[4-(2-cyclopropoxyphenyl)pyridin-3-yl]cyclopropoxy}methyl)phenyl]sulfanyl}ethoxy)ethyl]carbamoyl}amino)butyl]urea]"
14,1260 to 10000,"Cc1ccc(SCCCC(=O)NC[C@H](O)[C@@H](O)[C@H](O)[C@H](O)CO)nc1CNC1(c2cnccc2-c2ccccc2OC2CC2)CC1 [Compound I-653, 4-({6-[({1-[4-(2-cyclopropoxyphenyl)pyridin-3-yl]cyclopropyl}amino)methyl]-5-methylpyridin-2-yl}sulfanyl)-N-[(2S,3R,4R,5R)-2,3,4,5,6-pentahydroxyhexyl]butanamide]"
15,< 100,"COC[C@@H](O)CN(C[C@H](O)[C@@H](O)[C@H](O)[C@H](O)CO)C(=O)CCCCc1cc(Cl)c(COC2(c3cnccc3-c3ccccc3OC3CC3)CC2)cc1Cl [Compound I-125, 5-[2,5-dichloro-4-({1-[4-(2-cyclopropoxyphenyl)pyridin-3-yl]cyclopropoxy}methyl)phenyl]-N-[(2S)-2-hydroxy-3-methoxypropyl]-N-[(2S,3R,4R,5R)-2,3,4,5,6-pentahydroxyhexyl]pentanamide]"
16,126 to 1000,"CN(C)CCN(C[C@H](O)[C@@H](O)[C@H](O)[C@H](O)CO)C(=O)CCCSc1ccc(Cl)c(COC2(c3cnccc3-c3ccccc3OC3CC3)CC2)c1 [Compound I-662, 4-{[4-chloro-3-({1-[4-(2-cyclopropoxyphenyl)pyridin-3-yl]cyclopropoxy}methyl)phenyl]sulfanyl}-N-[2-(dimethylamino)ethyl]-N-[(2S,3R,4R,5R)-2,3,4,5,6-pentahydroxyhexyl]butanamide]"
17,126 to 1000,"COc1cc(C)c(CNC2(c3cnccc3-c3ccccc3OC3CC3)CC2)cc1C [Compound I-29, 1-[4-(2-cyclopropoxyphenyl)pyridin-3-yl]-N-[(4-methoxy-2,5-dimethylphenyl)methyl]cyclopropan-1-amine]"
18,126 to 1000,"CC(=O)NCCCCN(CCCSc1ccc(Cl)c(CNC2(c3cnccc3-c3ccccc3OC3CC3)CC2)c1)C(=O)[C@@H](O)[C@@H](O)[C@H](O)[C@@H](O)CO [Compound I-602, (2S,3S,4R,5S)-N-[3-({4-chloro-3-[({1-[4-(2-cyclopropoxyphenyl)pyridin-3-yl]cyclopropyl}amino)methyl]phenyl}sulfanyl)propyl]-N-(4-acetamidobutyl)-2,3,4,5,6-pentahydroxyhexanamide]"
19,< 100,"CN(C)C[C@H](NC(=O)CCCCc1cc(Cl)c(COC2(c3cnccc3-c3ccccc3OC3CC3)CC2)cc1Cl)[C@@H](O)[C@H](O)[C@H](O)CO [Compound I-165, 5-[2,5-dichloro-4-({1-[4-(2-cyclopropoxyphenyl)pyridin-3-yl]cyclopropoxy}methyl)phenyl]-N-[(2S,3R,4S,5R)-1-(dimethylamino)-3,4,5,6-tetrahydroxyhexan-2-yl]pentanamide]"
20,< 100,"Cc1ccc(Cl)cc1COC1(c2cnccc2-c2ccccc2OC2CC2)CC1 [Compound I-55, 3-{1-[(5-chloro-2-methylphenyl)methoxy]cyclopropyl}-4-(2-cyclopropoxyphenyl)pyridine]"
21,< 100,"CS(=O)(=O)CCCN(CCCCSc1ccc(Cl)c(CNC2(c3cnccc3-c3ccccc3OC3CC3)CC2)c1)C(=O)[C@@H](O)[C@@H](O)[C@H](O)[C@@H](O)CO [Compound I-532, (2S,3S,4R,5S)-N-[4-({4-chloro-3-[({1-[4-(2-cyclopropoxyphenyl)pyridin-3-yl]cyclopropyl}amino)methyl]phenyl}sulfanyl)butyl]-2,3,4,5,6-pentahydroxy-N-(3-methanesulfonylpropyl) hexanamide]"
